Test results: BigSolDB 2.1

N#CCC(N)=O
solubility (mole fraction)
Conditions | 273.15 K | 278.15 K | 283.15 K | 288.15 K | 293.15 K | 298.15 K | 303.15 K | 308.15 K | 313.15 K | 318.15 K
in 1,4-dioxane | – | – | – | 0.0127 | 0.0155 | 0.0186 | 0.0226 | 0.0278 | 0.0342 | 0.0407
in DMF | 0.254 | 0.262 | 0.271 | 0.283 | 0.295 | 0.309 | 0.325 | 0.343 | 0.36 | 0.382
in THF | 0.00988 | 0.0112 | 0.0128 | 0.0145 | 0.0164 | 0.0187 | 0.0209 | 0.0236 | 0.0268 | 0.0301
in acetone | 0.0248 | 0.0286 | 0.0335 | 0.039 | 0.0453 | 0.0527 | 0.0612 | 0.0712 | 0.0833 | 0.0956
in acetonitrile | 0.0154 | 0.0187 | 0.0232 | 0.0272 | 0.0329 | 0.0389 | 0.0469 | 0.0553 | 0.0671 | 0.0795
in chloroform | 0.000389 | 0.000465 | 0.000562 | 0.000678 | 0.000821 | 0.000985 | 0.00119 | 0.00143 | 0.00173 | 0.00208
in dichloromethane | 0.000321 | 0.000388 | 0.000471 | 0.000559 | 0.000668 | 0.000792 | 0.000931 | 0.00112 | – | –
in ethanol | 0.00455 | 0.00558 | 0.00681 | 0.0087 | 0.0105 | 0.0129 | 0.0157 | 0.0188 | 0.0229 | 0.0277
in ethyl acetate | 0.0043 | 0.00509 | 0.00602 | 0.00694 | 0.00829 | 0.00951 | 0.011 | 0.0128 | 0.0149 | 0.017
in methanol | 0.0126 | 0.0156 | 0.0186 | 0.0227 | 0.0273 | 0.0332 | 0.04 | 0.0482 | 0.0558 | 0.0674
in methyl acetate | 0.0115 | 0.0137 | 0.0163 | 0.0195 | 0.0228 | 0.0263 | 0.0307 | 0.0355 | 0.0408 | 0.0467
in n-butanol | 0.00201 | 0.00246 | 0.00298 | 0.00377 | 0.00456 | 0.0055 | 0.00667 | 0.00797 | 0.00982 | 0.0119
in n-propanol | 0.0022 | 0.00274 | 0.00355 | 0.00461 | 0.00591 | 0.00755 | 0.00935 | 0.0117 | 0.0147 | 0.0182
in water | – | 0.0136 | 0.0179 | 0.0233 | 0.0313 | 0.0405 | 0.0519 | 0.0674 | 0.0887 | 0.114
